In patent US20220354852A1, “TARGETING WNT SIGNALING FOR IMPROVED GLIOMA IMMUNOTHERAPY” (CITY OF HOPE, priority 2021, published 2022):

Columns and labels:
[1] = tested on: murine-derived glioma cell lines (K-luc, GL261-parental, and GL261.IL13Rα2 engineered); experiment: ICG-001 single agent on murine-derived glioma cell lines (growth kinetics); type: cell-based, mouse; conditions: ICG-001 0-10 μM, 4 days
Method: FIG. 11. (A, B) Growth kinetics of human PBT glioma lines (PBT017, PBT030, PBT135, PBT144, and PBT147) treated with ICG-001 (0-10 μM) for 7 days and (C) mouse glioma cells (GL261, GL261-IL13, and K-luc) treated with ICG-001 (0-10 μM) for 4 days. Red boxes indicate PBT030 and PBT147 cell lines used for Nanostring and proteomics analysis. Scale bars represent S.D. of triplicate samples. (D-F) Growth kinetics of PBT017 (2,500 cells/well) treated with or without HER2-CAR T cells (500 cells/well) and with or without ICG-001 (0-5 μM). The red line is CAR T cell treatment only and the bottom three lines are with ICG-001. Experiment was done in quadruplicate and error bars indicate S.D.
ICG-001 activity in vitro in human and mouse glioma cell lines. Initially, the effects of the specific CBP/β-catenin antagonist ICG-001 was tested in vitro as a single agent on human and mouse glioma cell lines (5 PBT human and 3 mouse glioma lines).

[2] = Tran and Zheng 2017; cited from earlier work
[3] = molecular target: β-catenin/CBP interaction (Homo sapiens, UniProt Q92793); conditions: cited from earlier work
β-catenin/CBP interaction, sequence (Q92793 whole entry): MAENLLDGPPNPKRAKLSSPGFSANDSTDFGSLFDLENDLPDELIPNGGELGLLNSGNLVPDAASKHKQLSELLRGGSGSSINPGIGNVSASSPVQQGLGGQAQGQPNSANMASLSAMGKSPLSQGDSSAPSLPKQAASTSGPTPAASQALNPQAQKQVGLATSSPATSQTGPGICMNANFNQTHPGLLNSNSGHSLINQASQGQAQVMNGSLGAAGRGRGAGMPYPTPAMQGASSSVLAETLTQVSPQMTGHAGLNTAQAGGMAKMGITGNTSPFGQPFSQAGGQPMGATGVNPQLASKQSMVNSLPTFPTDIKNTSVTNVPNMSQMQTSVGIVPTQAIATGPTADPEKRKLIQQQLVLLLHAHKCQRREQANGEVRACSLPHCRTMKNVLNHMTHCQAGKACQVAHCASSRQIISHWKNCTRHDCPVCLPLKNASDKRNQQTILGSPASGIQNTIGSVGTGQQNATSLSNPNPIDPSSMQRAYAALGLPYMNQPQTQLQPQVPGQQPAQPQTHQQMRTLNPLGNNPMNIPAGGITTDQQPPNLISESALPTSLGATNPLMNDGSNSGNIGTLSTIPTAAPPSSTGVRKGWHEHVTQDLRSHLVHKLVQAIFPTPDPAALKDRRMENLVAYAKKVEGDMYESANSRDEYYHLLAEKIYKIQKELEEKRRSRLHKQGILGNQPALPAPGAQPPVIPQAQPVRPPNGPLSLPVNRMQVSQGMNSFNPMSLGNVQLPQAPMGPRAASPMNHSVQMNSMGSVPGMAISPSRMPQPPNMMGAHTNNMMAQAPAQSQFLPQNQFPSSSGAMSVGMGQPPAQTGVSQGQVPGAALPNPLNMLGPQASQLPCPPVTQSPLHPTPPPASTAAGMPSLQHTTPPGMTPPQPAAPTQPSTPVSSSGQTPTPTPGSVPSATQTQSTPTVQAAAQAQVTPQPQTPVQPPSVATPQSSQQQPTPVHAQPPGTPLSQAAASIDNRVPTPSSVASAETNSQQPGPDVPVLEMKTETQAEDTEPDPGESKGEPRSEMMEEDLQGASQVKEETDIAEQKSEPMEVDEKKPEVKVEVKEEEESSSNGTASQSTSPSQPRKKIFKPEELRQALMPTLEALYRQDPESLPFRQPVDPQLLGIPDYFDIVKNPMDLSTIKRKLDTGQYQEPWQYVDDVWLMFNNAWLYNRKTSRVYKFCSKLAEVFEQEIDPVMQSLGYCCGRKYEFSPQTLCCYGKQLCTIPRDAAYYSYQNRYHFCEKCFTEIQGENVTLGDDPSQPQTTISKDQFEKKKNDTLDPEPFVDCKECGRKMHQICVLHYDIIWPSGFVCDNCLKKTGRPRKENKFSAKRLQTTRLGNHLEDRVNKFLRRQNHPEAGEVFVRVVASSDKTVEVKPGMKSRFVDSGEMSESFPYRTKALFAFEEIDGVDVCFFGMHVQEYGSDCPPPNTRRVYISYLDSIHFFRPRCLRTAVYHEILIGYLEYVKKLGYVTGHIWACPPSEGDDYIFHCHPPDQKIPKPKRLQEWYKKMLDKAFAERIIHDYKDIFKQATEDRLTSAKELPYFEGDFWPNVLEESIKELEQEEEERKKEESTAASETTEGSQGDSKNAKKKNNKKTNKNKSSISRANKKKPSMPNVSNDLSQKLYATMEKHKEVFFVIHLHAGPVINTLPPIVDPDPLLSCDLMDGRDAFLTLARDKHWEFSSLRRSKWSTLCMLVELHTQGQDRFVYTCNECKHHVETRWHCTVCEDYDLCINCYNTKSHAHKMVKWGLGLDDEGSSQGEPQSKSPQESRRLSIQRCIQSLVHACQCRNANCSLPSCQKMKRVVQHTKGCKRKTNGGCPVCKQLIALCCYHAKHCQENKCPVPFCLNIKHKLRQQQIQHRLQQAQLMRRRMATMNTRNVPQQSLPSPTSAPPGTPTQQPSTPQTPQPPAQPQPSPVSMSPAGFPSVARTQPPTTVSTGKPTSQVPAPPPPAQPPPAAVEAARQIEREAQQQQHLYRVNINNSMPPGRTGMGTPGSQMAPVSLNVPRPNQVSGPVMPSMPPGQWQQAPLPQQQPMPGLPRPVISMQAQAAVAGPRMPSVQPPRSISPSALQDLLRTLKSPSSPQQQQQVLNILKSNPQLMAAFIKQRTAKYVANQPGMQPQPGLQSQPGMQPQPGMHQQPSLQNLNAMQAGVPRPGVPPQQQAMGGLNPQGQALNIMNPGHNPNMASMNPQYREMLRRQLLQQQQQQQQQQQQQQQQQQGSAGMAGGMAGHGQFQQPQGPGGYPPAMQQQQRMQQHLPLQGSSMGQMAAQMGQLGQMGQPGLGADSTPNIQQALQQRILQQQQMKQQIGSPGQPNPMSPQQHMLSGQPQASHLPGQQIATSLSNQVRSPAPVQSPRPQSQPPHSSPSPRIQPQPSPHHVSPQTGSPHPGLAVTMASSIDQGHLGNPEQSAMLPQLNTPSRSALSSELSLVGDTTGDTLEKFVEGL

[4] = tested on: Survivin/BIRC5 (Wnt/CBP/β-catenin signaling); experiment: Survivin-luciferase reporter assay; type: cell-based, human; conditions: PBT017 and PBT030 cell lines
Method: FIG. 15. Expression of target genes post-ICG-001 treatment (0-10 μM) by RT-PCR using (A-C) mouse Survivin in GL261-IL13, GL261, and K-luc cells. (D) Survivin in PBT147 human glioma cells. (E, F) Luciferase reporter assay indicating downregulation of Survivin/BIRC5 in PBT017 and PBT030 cell lines.
FIG. 16 is a table showing the expression of the target genes survivin/BIRC5 post-ICG-001 treatment ([…]) as detected by RT-PCR and Luciferase Reporter Assay.
ICG-001 differentially affects the expression of the Wnt target genes BIRC5/Survivin and EphB2 in vitro. […] The effects of ICG-001 on Wnt/CBP/β-catenin signaling were further confirmed using a Survivin-luciferase reporter assay (FIG. 15). ICG-001's selective effects on the expression of Survivin and EphB2 may serve as indicators of ICG-001 on target tissue activity in vivo (FIG. 16) and a readout for pharmacokinetics/pharmacodynamics (PK/PD) as used previously in clinical trials with the second-generation CBP/β-catenin specific antagonist PRI-724 (Anthony et al. 2013).

[5] = tested on: subcutaneous murine K-luc GBM tumors; experiment: NanoString mouse immune panel of subcutaneous K-luc tumors; type: in vivo; conditions: 50 mg/kg/day, compared with untreated controls on day 21
Text: FIG. 23. NanoString analysis of subcutaneous K-luc tumors using the mouse immune panel. 750 mRNA concentration measurements, measured in baseline cells first at day 0 and then in subcutaneously transplanted tumors in separate mice at day 7, 14, and 21 (n=2). Sample 507 is a tumor that was not treated with ICG-001, was harvested on day 21, and is a baseline for comparison for days 7, 14, and 21. The log10 fold-change in mRNA expression was considered between 507 and the other samples.
(§1) Animal studies. Syngeneic mice (C57BL/6) of 8-12 weeks of age were implanted with subcutaneous K-Luc tumors (n=8). 7 days after, when tumors became palpable and after confirmation of the tumor presence with BLU imaging, mice were implanted with Alzet minipumps with ICG001 (50 mg/kg/day). Pumps were continuously providing a daily dose of ICG-001. Tumor tissues were harvested on days 7, 14, 21 post pump implantation and tumors were prepared for IHC (paraffin sections) and Nanostring analysis.
NanoString analysis of subcutaneous murine K-luc GBM tumors The ICG-001 and saline control treated tumors were harvested on days 7, 14, and 21. Freshly frozen K-luc tumors were used for RNA isolation and NanoString analysis to determine endogenous immune response upon treatment with ICG-001. […]

[6] = tested on: subcutaneous K-luc tumors; experiment: IHC of immune cells in syngeneic subcutaneous K-luc glioma tumors; type: in vivo, mice (C57BL/6); conditions: 50 mg/kg/day by subcutaneous Alzet minipumps
Method: FIG. 22. IHC analysis of immune cells in syngeneic models of subcutaneous glioma (K-Luc). (A-D) Mice bearing subcutaneous K-luc glioma tumors were treated with ICG-001 (50 mg/kg/day) for 7, 14, or 21 days. At the end of treatment, tumor was excised and IHC stained for CD3 cells to evaluate recruitment and patterns of CD3 distribution (red). (E) Quantification of tumor coverage using ImageJ for mouse CD3, CD4, CD8, and CD31 positive cells on days 0-21. Scale bars are S.D. of duplicate sections (n=4).
as §1, with “Tumor tissues were harvested on days 7, 14, 21 post pump implantation and tumors were prepared for IHC (paraffin sections) and Nanostring analysis.” left out
IHC was performed in COH pathology core. Tissues were scanned and quantification of CD4, CD8 and CD31 expression was done using ImageJ software.
Image analysis. Images were processed and analyzed in the ImageJ (Schneider et al. 2012, also see Schneider, C. A., Rasband, W. S., Image J, U. S. National Institutes of Health, Bethesda, Md., USA, https://imagej.nih.gov/ij/, 1997-2018). […] A watershed filter was then applied to this processed mask and the ‘Analyze Particles’ tool with a 4 pixel minimum size was employed to quantify the cells identified. […]

SMILES: O=C1[C@H](Cc2ccc(O)cc2)N2C(=O)CCN(C(=O)NCc3ccccc3)[C@H]2CN1Cc1cccc2ccccc12 [ICG-001]
- effect on cell growth (growth kinetics) [1]: concentration dependent cytostatic effect
- blood-brain barrier crossing [2]: cross the blood-brain barrier
- blockade of β-catenin/CBP versus β-catenin/p300 interaction [3]: selectively blocks the β-catenin/CBP interaction without interfering with the β-catenin/p300 interaction
- Survivin/BIRC5 luciferase reporter activity [4]: downregulation
- immune pathways (mRNA) in tumor versus untreated controls [5]: concentration dependent increase in immune pathways
- CD3+, CD8+, and CD4+ cells infiltrating the tumor ([6]; by day 14): increase in mouse host immune cells
- CD31 expression in tumor ([6]; days 7, 14, 21): time-dependent increase
